Experimental data taken from ChEMBL document CHEMBL1201862, “PubChem BioAssay data set” (2004).
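Compound exposure: 48 hours, 5 concentrations, 96-well plates. Abbreviation: GI50, concentration required for 50% inhibition of growth.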 Calls of active or inactive are those of the source. Cut-off read from the data, not from the text of the source: active = GI50 up to about 1.1 µM and inactive = higher.

How the values were obtained:
Test in all cases: NCI tumour cell line growth inhibition, 48 h
A498 = test system: A498
ACHN = test system: ACHN
CAKI-1 = test system: CAKI-1
CCRF-CEM = test system: CCRF-CEM
COLO 205 = test system: COLO 205
DLD-1 = test system: DLD-1
EKVX = test system: EKVX
HL-60 = test system: HL-60
HOP-62 = test system: HOP-62
HOP-92 = test system: HOP-92
HT-29 = test system: HT-29
IGROV-1 = test system: IGROV-1
K562 = test system: K562
KM-20L2 = test system: KM-20L2
KM12 = test system: KM12
LOX IMVI = test system: LOX IMVI
MOLT-4 = test system: MOLT-4
NCI-H226 = test system: NCI-H226
NCI-H23 = test system: NCI-H23
OVCAR-4 = test system: OVCAR-4
OVCAR-5 = test system: OVCAR-5
OVCAR-8 = test system: OVCAR-8
RPMI-8226 = test system: RPMI-8226
SF-295 = test system: SF-295
SF-539 = test system: SF-539
SK-MEL-5 = test system: SK-MEL-5
SN12C = test system: SN12C
SNB-19 = test system: SNB-19
SNB-75 = test system: SNB-75
SR = test system: SR
SW-620 = test system: SW-620
TK-10 = test system: TK-10
UACC-257 = test system: UACC-257
UACC-62 = test system: UACC-62
786-0 = test system: 786-0
A549 = test system: A549
DMS-114 = test system: DMS-114
HCC 2998 = test system: HCC 2998
HCT-116 = test system: HCT-116
HCT-15 = test system: HCT-15
HOP-18 = test system: HOP-18
LXFL 529 = test system: LXFL 529
M14 = test system: M14
Malme-3M = test system: Malme-3M
NCI-H460 = test system: NCI-H460
NCI-H522 = test system: NCI-H522
OVCAR-3 = test system: OVCAR-3
SF-268 = test system: SF-268
SK-MEL-28 = test system: SK-MEL-28
SK-MEL-2 = test system: SK-MEL-2
SK-OV-3 = test system: SK-OV-3
SNB-78 = test system: SNB-78
U-251 = test system: U-251
UO-31 = test system: UO-31
DMS-273 = test system: DMS-273
RXF 393 = test system: RXF 393

Question: `COC(=O)/C(=N\NC(C)(C)C)C(C(=O)C(=O)Nc1cc(C)ccc1C)c1nc2ccccc2nc1O` (centres undefined) was tested. Which GI50 (A498) did it give?
Answer: > 100 µM (inactive)

Question: What about the GI50 (ACHN) of the same molecule?
Answer: > 100 µM (inactive)

Question: And the GI50 (CAKI-1)?
Answer: > 100 µM (inactive)

Question: What about the GI50 (CCRF-CEM) of the same molecule?
Answer: > 100 µM (inactive)

Question: What about the GI50 (COLO 205) of the same molecule?
Answer: > 100 µM (inactive)

Question: What about the GI50 (DLD-1) of the same molecule?
Answer: > 100 µM (inactive)

Question: And the GI50 (EKVX)?
Answer: > 100 µM (inactive)

Question: And the GI50 (HL-60)?
Answer: > 100 µM (inactive)

Question: And the GI50 (HOP-62)?
Answer: > 100 µM (inactive)

Question: What about the GI50 (HOP-92) of the same molecule?
Answer: > 100 µM (inactive)

Question: What about the GI50 (HT-29) of the same molecule?
Answer: > 100 µM (inactive)

Question: What about the GI50 (IGROV-1) of the same molecule?
Answer: > 100 µM (inactive)

Question: What about the GI50 (K562) of the same molecule?
Answer: > 100 µM (inactive)

Question: And the GI50 (KM-20L2)?
Answer: > 100 µM (inactive)

Question: What about the GI50 (KM12) of the same molecule?
Answer: > 100 µM (inactive)

Question: What about the GI50 (LOX IMVI) of the same molecule?
Answer: > 100 µM (inactive)

Question: And the GI50 (MOLT-4)?
Answer: > 100 µM (inactive)

Question: What about the GI50 (NCI-H226) of the same molecule?
Answer: > 100 µM (inactive)

Question: And the GI50 (NCI-H23)?
Answer: > 100 µM (inactive)

Question: What about the GI50 (OVCAR-4) of the same molecule?
Answer: > 100 µM (inactive)

Question: What about the GI50 (OVCAR-5) of the same molecule?
Answer: > 100 µM (inactive)

Question: What about the GI50 (OVCAR-8) of the same molecule?
Answer: > 100 µM (inactive)

Question: And the GI50 (RPMI-8226)?
Answer: > 100 µM (inactive)

Question: What about the GI50 (SF-295) of the same molecule?
Answer: > 100 µM (inactive)

Question: And the GI50 (SF-539)?
Answer: > 100 µM (inactive)

Question: What about the GI50 (SK-MEL-5) of the same molecule?
Answer: > 100 µM (inactive)

Question: And the GI50 (SN12C)?
Answer: > 100 µM (inactive)

Question: And the GI50 (SNB-19)?
Answer: > 100 µM (inactive)

Question: And the GI50 (SNB-75)?
Answer: > 100 µM (inactive)

Question: And the GI50 (SR)?
Answer: > 100 µM (inactive)

Question: What about the GI50 (SW-620) of the same molecule?
Answer: > 100 µM (inactive)

Question: And the GI50 (TK-10)?
Answer: > 100 µM (inactive)

Question: And the GI50 (UACC-257)?
Answer: > 100 µM (inactive)

Question: What about the GI50 (UACC-62) of the same molecule?
Answer: > 100 µM (inactive)

Question: `C/C1=N\[N-]C(=O)c2ccccc2C(=O)N/N=C(\C)c2cccc1n2.O=[N+]([O-])[O-].[Zn+2]` was tested. Which GI50 (786-0) did it give?
Answer: > 100 µM (inactive)

Question: What about the GI50 (A498) of the same molecule?
Answer: > 100 µM (inactive)

Question: And the GI50 (A549)?
Answer: > 100 µM (inactive)

Question: What about the GI50 (ACHN) of the same molecule?
Answer: > 100 µM (inactive)

Question: And the GI50 (CAKI-1)?
Answer: > 100 µM (inactive)

Question: What about the GI50 (CCRF-CEM) of the same molecule?
Answer: > 100 µM (inactive)

Question: And the GI50 (COLO 205)?
Answer: > 100 µM (inactive)

Question: What about the GI50 (DLD-1) of the same molecule?
Answer: > 100 µM (inactive)

Question: And the GI50 (DMS-114)?
Answer: > 100 µM (inactive)

Question: What about the GI50 (EKVX) of the same molecule?
Answer: > 100 µM (inactive)

Question: What about the GI50 (HCC 2998) of the same molecule?
Answer: > 100 µM (inactive)

Question: And the GI50 (HCT-116)?
Answer: > 100 µM (inactive)

Question: And the GI50 (HCT-15)?
Answer: > 100 µM

Question: What about the GI50 (HOP-18) of the same molecule?
Answer: > 100 µM (inactive)

Question: What about the GI50 (HOP-62) of the same molecule?
Answer: > 100 µM (inactive)

Question: And the GI50 (HT-29)?
Answer: > 100 µM (inactive)

Question: What about the GI50 (IGROV-1) of the same molecule?
Answer: > 100 µM (inactive)

Question: And the GI50 (K562)?
Answer: > 100 µM (inactive)

Question: What about the GI50 (KM-20L2) of the same molecule?
Answer: > 100 µM (inactive)

Question: And the GI50 (KM12)?
Answer: > 100 µM (inactive)

Question: What about the GI50 (LXFL 529) of the same molecule?
Answer: 44.2 µM (inactive)

Question: What about the GI50 (M14) of the same molecule?
Answer: > 100 µM (inactive)

Question: And the GI50 (MOLT-4)?
Answer: > 100 µM (inactive)

Question: And the GI50 (Malme-3M)?
Answer: > 100 µM (inactive)

Question: What about the GI50 (NCI-H23) of the same molecule?
Answer: > 100 µM (inactive)

Question: What about the GI50 (NCI-H460) of the same molecule?
Answer: > 100 µM (inactive)

Question: And the GI50 (NCI-H522)?
Answer: > 100 µM (inactive)

Question: What about the GI50 (OVCAR-3) of the same molecule?
Answer: > 100 µM (inactive)

Question: And the GI50 (OVCAR-4)?
Answer: > 100 µM (inactive)

Question: What about the GI50 (OVCAR-5) of the same molecule?
Answer: > 100 µM (inactive)

Question: And the GI50 (OVCAR-8)?
Answer: > 100 µM (inactive)

Question: What about the GI50 (RPMI-8226) of the same molecule?
Answer: > 100 µM (inactive)

Question: And the GI50 (SF-268)?
Answer: > 100 µM (inactive)

Question: What about the GI50 (SF-295) of the same molecule?
Answer: > 100 µM (inactive)

Question: What about the GI50 (SF-539) of the same molecule?
Answer: > 100 µM (inactive)

Question: And the GI50 (SK-MEL-28)?
Answer: > 100 µM (inactive)

Question: What about the GI50 (SK-MEL-2) of the same molecule?
Answer: > 100 µM (inactive)

Question: And the GI50 (SK-MEL-5)?
Answer: > 100 µM (inactive)

Question: And the GI50 (SK-OV-3)?
Answer: > 100 µM (inactive)

Question: And the GI50 (SN12C)?
Answer: > 100 µM (inactive)

Question: What about the GI50 (SNB-19) of the same molecule?
Answer: > 100 µM (inactive)

Question: And the GI50 (SNB-75)?
Answer: 19.5 µM (inactive)

Question: What about the GI50 (SNB-78) of the same molecule?
Answer: > 100 µM (inactive)

Question: What about the GI50 (SW-620) of the same molecule?
Answer: > 100 µM (inactive)

Question: And the GI50 (TK-10)?
Answer: > 100 µM (inactive)

Question: What about the GI50 (U-251) of the same molecule?
Answer: > 100 µM (inactive)

Question: What about the GI50 (UACC-257) of the same molecule?
Answer: > 100 µM (inactive)

Question: What about the GI50 (UACC-62) of the same molecule?
Answer: > 100 µM (inactive)

Question: What about the GI50 (UO-31) of the same molecule?
Answer: > 100 µM (inactive)

Question: What does the source list for `COc1cc(Cc2c(C)cc(OC)c3[nH]c4ccccc4c23)cc2c1[nH]c1ccccc12`?
Answer: GI50 (DMS-114): 10.5 µM (inactive); GI50 (OVCAR-3): 5.42 µM (inactive); GI50 (OVCAR-5): 4.99 µM (inactive); GI50 (OVCAR-8): 4.57 µM (inactive); GI50 (RPMI-8226): 9.95 µM (inactive); GI50 (SNB-19): 8.85 µM (inactive); GI50 (SNB-78): 5.79 µM (inactive)

Question: How did the GI50 (A498) turn out when `Cc1ccc2nc3c(Cl)c(C)c(=O)cc-3sc2c1` was run?
Answer: > 100 µM (inactive)

Question: What about the GI50 (A549) of the same molecule?
Answer: 70.5 µM (inactive)

Question: What about the GI50 (CAKI-1) of the same molecule?
Answer: > 10 µM (inactive)

Question: And the GI50 (CCRF-CEM)?
Answer: 7.18 µM (inactive)

Question: And the GI50 (COLO 205)?
Answer: > 10 µM (inactive)

Question: What about the GI50 (DMS-273) of the same molecule?
Answer: 76 µM (inactive)

Question: What about the GI50 (HL-60) of the same molecule?
Answer: 26.4 µM (inactive)

Question: And the GI50 (HOP-18)?
Answer: > 10 µM (inactive)

Question: What about the GI50 (HOP-92) of the same molecule?
Answer: 64 µM (inactive)

Question: What about the GI50 (IGROV-1) of the same molecule?
Answer: > 10 µM (inactive)

Question: What about the GI50 (K562) of the same molecule?
Answer: 26.9 µM (inactive)

Question: What about the GI50 (LOX IMVI) of the same molecule?
Answer: 42.1 µM (inactive)

Question: What about the GI50 (MOLT-4) of the same molecule?
Answer: 10.7 µM (inactive)

Question: What about the GI50 (NCI-H522) of the same molecule?
Answer: 35.3 µM (inactive)

Question: And the GI50 (OVCAR-8)?
Answer: 51.1 µM (inactive)

Question: And the GI50 (RPMI-8226)?
Answer: 23 µM (inactive)

Question: What about the GI50 (RXF 393) of the same molecule?
Answer: 21.5 µM (inactive)

Question: What about the GI50 (SF-295) of the same molecule?
Answer: 41.2 µM (inactive)

Question: And the GI50 (SK-MEL-28)?
Answer: > 10 µM (inactive)

Question: What about the GI50 (SK-MEL-5) of the same molecule?
Answer: 60.3 µM (inactive)

Question: What about the GI50 (SK-OV-3) of the same molecule?
Answer: > 10 µM (inactive)

Question: What about the GI50 (SR) of the same molecule?
Answer: > 10 µM (inactive)

Question: What about the GI50 (SW-620) of the same molecule?
Answer: 83.4 µM (inactive)

Question: And the GI50 (UO-31)?
Answer: 52.5 µM (inactive)
